Measurements published in patent publication US11325940B2, “Certain chemical entities, compositions, and methods” (NeuPharma, Inc., priority 2012, dated 2022).
Where two headings read alike, the source gives them in different places.

Legend:
[1] = Equilibrium solubility in aqueous buffer (HPLC UV); type: physicochemical; conditions: aqueous buffer, thermodynamic from solid; equilibrium solubility, NaOAc/AcOH buffer (100 mM, pH 5.0), rt, 24 h; read-out: Solubility
Description: The equilibrium solubility of compounds was measured in aqueous buffer. Excess amount of solid compound was added into buffer solution and the sample was briefly sonicated and then shaken at rt for 24 h. The sample was filtered and the concentration was analyzed by HPLC UV. A standard solution at 0.2 mg/mL was prepared in methanol or acetonitrile for each compound and used as an external standard for quantification. The scale utilized in Tables 2 is as follows: +++ greater than 1 mg/mL; ++ between 1 and 0.1 mg/mL; and + less than 0.1 mg/mL.

[2] = tested on: A549 cells; experiment: Inhibition of cancer cell growth, MTT assay; type: cell-based; conditions: Homo sapiens
Description: Inhibition of cell growth by compounds was measured using MTT assay (Mosmann, T., Journal of Immunological Methods, 1983, 65, 55-63). Tumor cell lines were purchased from ATCC (American Type Culture Collection, Manassas, Va.). All cell lines were maintained in RPMI 1640 (Hyclone) supplemented with 10% fetal bovine serum (FBS, Hyclone), glutamine (2 mM, Hyclone), and antibiotics (penicillin 100 U/mL and streptomycin 50 μg/mL) at 37° C. in a humidified atmosphere of 5% CO2 in air. Taxol (as a positive control, Sigma) and compounds were dissolved in DMSO (Sigma), and the final concentration of DMSO in the medium was 1%. Tumor cells were plated in 96-well plates at densities of about 4000 cells/well of a 96-well plate and allowed to adhere/grow for 24 h. They were then treated with various concentrations of drug for 72 h. 3-(4,5-Dimethylthiazol-2-yl)-2,5-diphenyltetrazolium bromide (MTT, Sigma) was used to determine the number of viable cells at the time of compound addition and the number of cells remaining after 72 h compound exposure. The number of cells remaining after 72 h was compared to the number of viable cells at the time of compound addition by measuring the absorbance at 570 nm, allowing for the calculation of growth inhibition.
All concentrations of compounds were tested in triplicate and controls were averaged over 4 wells. IC50 was calculated by plotting the concentration of compound vs the percentage of inhibition in treated wells using GraphPad Prism 5. […] The scale utilized in Table 3 is as follows: ++++ less than 20 nM; +++ between 20 nM and 100 nM; ++ between 100 nM and 1000 nM; and + greater than 1000 nM.

[3] = A549 cells, 72 h compound exposure, MTT, read-out: IC50

`C[C@]12CCC(NCCN3CCCC3)C[C@H]1CC[C@@H]1[C@@H]2CC[C@]2(C)[C@@H](c3ccc(=O)oc3)CC[C@]12O` (stereo partly drawn) [Compound C27, 5-((5R,8R,9S,10S,13R,14S,17R)-14-hydroxy-10,13-dimethyl-3-((2-(pyrrolidin-1-yl)ethyl)amino)hexadecahydro-1H-cyclopenta[a]phenanthren-17-yl)-2H-pyran-2-one] showed a solubility at 24 h [1] of over 1000 µg/mL and an IC50 [2, 3] of under 20 nM.

Work on `C[C@]12CCC(N3CCCC3)C[C@H]1CC[C@@H]1[C@@H]2CC[C@]2(C)[C@@H](c3ccc(=O)oc3)CC[C@]12O` (stereo partly drawn) [Compound C20, 5-((5R,8R,9S,10S,13R,14S,17R)-14-hydroxy-10,13-dimethyl-3-(pyrrolidin-1-yl)hexadecahydro-1H-cyclopenta[a]phenanthren-17-yl)-2H-pyran-2-one] yielded a solubility at 24 h [1] of over 1000 µg/mL and an IC50 [2, 3] of under 20 nM.

For `C[C@]12CC[C@H](NC(=O)NCCN)C[C@H]1CC[C@@H]1[C@@H]2CC[C@]2(C)[C@@H](c3ccc(=O)oc3)CC[C@]12O` [Compound C10, 1-(2-aminoethyl)-3-((3S,5R,8R,9S,10S,13R,14S,17R)-14-hydroxy-10,13-dimethyl-17-(2-oxo-2H-pyran-5-yl)hexadecahydro-1H-cyclopenta[a]phenanthren-3-yl)urea], the solubility at 24 h [1] was over 1000 µg/mL and the IC50 [2, 3] was under 20 nM.

In the case of `CN(CCO)C1CC[C@@]2(C)[C@H](CC[C@@H]3[C@@H]2CC[C@]2(C)[C@@H](c4ccc(=O)oc4)CC[C@]32O)C1` (stereo partly drawn) [Compound C32, 5-((5R,8R,9S,10S,13R,14S,17R)-14-hydroxy-3-((2-hydroxyethyl)(methyl)amino)-10,13-dimethylhexadecahydro-1H-cyclopenta[a]phenanthren-17-yl)-2H-pyran-2-one], the solubility at 24 h [1] is reported as under 100 µg/mL and the IC50 [2, 3] is reported as 100 to 1000 nM.

With `C[C@]12CC[C@H](NC(=O)CN)C[C@H]1CC[C@@H]1[C@@H]2CC[C@]2(C)[C@@H](c3ccc(=O)oc3)CC[C@]12O` [Compound C12, 2-amino-N-((3S,5R,8R,9S,10S,13R,14S,17R)-14-hydroxy-10,13-dimethyl-17-(2-oxo-2H-pyran-5-yl)hexadecahydro-1H-cyclopenta[a]phenanthren-3-yl)acetamide] the solubility at 24 h [1] was over 1000 µg/mL and the IC50 [2, 3] was under 20 nM.

In the case of `C[C@]12CC[C@H](NC(=O)N3CCOCC3)C[C@H]1CC[C@@H]1[C@@H]2CC[C@]2(C)[C@@H](c3ccc(=O)oc3)CC[C@]12O` [Compound C02, N-((3S,5R,8R,9S,10S,13R,14S,17R)-14-hydroxy-10,13-dimethyl-17-(2-oxo-2H-pyran-5-yl)hexadecahydro-1H-cyclopenta[a]phenanthren-3-yl)morpholine-4-carboxamide], the solubility at 24 h [1] is reported as under 100 µg/mL and the IC50 [2, 3] is reported as under 20 nM.

In the case of `C[C@]12CCC(N3CCOCC3)C[C@H]1CC[C@@H]1[C@@H]2CC[C@]2(C)[C@@H](c3ccc(=O)oc3)CC[C@]12O` (stereo partly drawn) [Compound C28, 5-((5R,8R,9S,10S,13R,14S,17R)-14-hydroxy-10,13-dimethyl-3-morpholinohexadecahydro-1H-cyclopenta[a]phenanthren-17-yl)-2H-pyran-2-one], the solubility at 24 h [1] is reported as over 1000 µg/mL and the IC50 [2, 3] is reported as 100 to 1000 nM.

`CC(C)[C@@H](N)C(=O)N(C)C1CC[C@@]2(C)[C@H](CC[C@@H]3[C@@H]2CC[C@]2(C)[C@@H](c4ccc(=O)oc4)CC[C@]32O)C1` (stereo partly drawn) [Compound C22, (2R)-2-amino-N-((5R,8R,9S,10S,13R,14S,17R)-14-hydroxy-10,13-dimethyl-17-(2-oxo-2H-pyran-5-yl)hexadecahydro-1H-cyclopenta[a]phenanthren-3-yl)-N,3-dimethylbutanamide] gave a solubility at 24 h [1] of over 1000 µg/mL and an IC50 [2, 3] of 20 to 100 nM.

Work on `C[C@]12CCC(NC(=O)[C@H]3CCCN3)C[C@@]1(O)CC[C@@H]1[C@@H]2CC[C@]2(C)[C@@H](c3ccc(=O)oc3)CC[C@]12O` (stereo partly drawn) [Compound C31, (2R)-N-((5S,8R,9S,10R,13R,14S,17R)-5,14-dihydroxy-10,13-dimethyl-17-(2-oxo-2H-pyran-5-yl)hexadecahydro-1H-cyclopenta[a]phenanthren-3-yl)pyrrolidine-2-carboxamide] yielded an IC50 ([2]; A549, 72 h) of under 20 nM.

`C[C@]12CC[C@@H](NC(=O)NCCO)C[C@H]1CC[C@@H]1[C@@H]2CC[C@]2(C)[C@@H](c3ccc(=O)oc3)CC[C@]12O` [Compound C07, 1-((3R,5R,8R,9S,10S,13R,14S,17R)-14-hydroxy-10,13-dimethyl-17-(2-oxo-2H-pyran-5-yl)hexadecahydro-1H-cyclopenta[a]phenanthren-3-yl)-3-(2-hydroxyethyl)urea] gave an IC50 ([2]; A549, 72 h) of 100 to 1000 nM.

In the case of `CC(C)[C@@H](N)C(=O)N[C@H]1CC[C@]2(C)[C@H]3CC[C@]4(C)[C@@H](c5ccc(=O)oc5)CC[C@]4(O)[C@@H]3CC[C@]2(O)C1` [Compound C29, (2R)-2-amino-N-((5S,8R,9S,10R,13R,14S,17R)-5,14-dihydroxy-10,13-dimethyl-17-(2-oxo-2H-pyran-5-yl)hexadecahydro-1H-cyclopenta[a]phenanthren-3-yl)-3-methylbutanamide], the IC50 ([2]; A549, 72 h) is reported as under 20 nM.

Work on `C[C@]12CC[C@H](NS(C)(=O)=O)C[C@H]1CC[C@@H]1[C@@H]2CC[C@]2(C)[C@@H](c3ccc(=O)oc3)CC[C@]12O` [Compound C16, N-((3S,5R,8R,9S,10S,13R,14S,17R)-14-hydroxy-10,13-dimethyl-17-(2-oxo-2H-pyran-5-yl)hexadecahydro-1H-cyclopenta[a]phenanthren-3-yl)methanesulfonamide] yielded an IC50 ([2]; A549, 72 h) of under 20 nM.

With `C[C@]12CC[C@@H](NC(=O)[C@@H]3CCCN3)C[C@H]1CC[C@@H]1[C@@H]2CC[C@]2(C)[C@@H](c3ccc(=O)oc3)CC[C@]12O` [Compound C13, (S)-N-((3R,5R,8R,9S,10S,13R,14S,17R)-14-hydroxy-10,13-dimethyl-17-(2-oxo-2H-pyran-5-yl)hexadecahydro-1H-cyclopenta[a]phenanthren-3-yl)pyrrolidine-2-carboxamide] the IC50 ([2]; A549, 72 h) was 100 to 1000 nM.

Compound `C[C@]12CC[C@@H](NC(=O)N3CCOCC3)C[C@H]1CC[C@@H]1[C@@H]2CC[C@]2(C)[C@@H](c3ccc(=O)oc3)CC[C@]12O` [Compound C01, N-((3R,5R,8R,9S,10S,13R,14S,17R)-14-hydroxy-10,13-dimethyl-17-(2-oxo-2H-pyran-5-yl)hexadecahydro-1H-cyclopenta[a]phenanthren-3-yl)morpholine-4-carboxamide] has an IC50 [2, 3] of 100 to 1000 nM.

`C[C@]12CC[C@@H](NC(=O)N3CCCC3)C[C@H]1CC[C@@H]1[C@@H]2CC[C@]2(C)[C@@H](c3ccc(=O)oc3)CC[C@]12O` [Compound C05, N-((3R,5R,8R,9S,10S,13R,14S,17R)-14-hydroxy-10,13-dimethyl-17-(2-oxo-2H-pyran-5-yl)hexadecahydro-1H-cyclopenta[a]phenanthren-3-yl)pyrrolidine-1-carboxamide] showed an IC50 ([2]; A549, 72 h) of 100 to 1000 nM.

Work on `CN(C(=O)N1CCOCC1)C1CC[C@@]2(C)[C@H](CC[C@@H]3[C@@H]2CC[C@]2(C)[C@@H](c4ccc(=O)oc4)CC[C@]32O)C1` (stereo partly drawn) [Compound C23, N-((5R,8R,9S,10S,13R,14S,17R)-14-hydroxy-10,13-dimethyl-17-(2-oxo-2H-pyran-5-yl)hexadecahydro-1H-cyclopenta[a]phenanthren-3-yl)-N-methylmorpholine-4-carboxamide] yielded an IC50 ([2]; A549, 72 h) of 100 to 1000 nM.

Work on `C[C@]12CC[C@H](N)C[C@H]1CC[C@@H]1[C@@H]2CC[C@]2(C)[C@@H](c3ccc(=O)oc3)CC[C@]12O` [Compound C35, 5-((3S,5R,8R,9S,10S,13R,14S,17R)-3-amino-14-hydroxy-10,13-dimethylhexadecahydro-1H-cyclopenta[a]phenanthren-17-yl)-2H-pyran-2-one] yielded an IC50 ([2]; A549, 72 h) of under 20 nM.

For `C[C@]12CC[C@H](NC(=O)N3CCCC3)C[C@H]1CC[C@@H]1[C@@H]2CC[C@]2(C)[C@@H](c3ccc(=O)oc3)CC[C@]12O` [Compound C06, N-((3S,5R,8R,9S,10S,13R,14S,17R)-14-hydroxy-10,13-dimethyl-17-(2-oxo-2H-pyran-5-yl)hexadecahydro-1H-cyclopenta[a]phenanthren-3-yl)pyrrolidine-1-carboxamide], the IC50 ([2]; A549, 72 h) was under 20 nM.

`C[C@]12CC[C@@H](NC(=O)NCCN)C[C@H]1CC[C@@H]1[C@@H]2CC[C@]2(C)[C@@H](c3ccc(=O)oc3)CC[C@]12O` [Compound C08, 1-(2-aminoethyl)-3-((3R,5R,8R,9S,10S,13R,14S,17R)-14-hydroxy-10,13-dimethyl-17-(2-oxo-2H-pyran-5-yl)hexadecahydro-1H-cyclopenta[a]phenanthren-3-yl)urea] gave an IC50 [2, 3] of 100 to 1000 nM.
